Results published in patent US11045561B2, “Rotaxane-type probe for molecular imaging” (Rhode Island Council on Postsecondary Education, priority 2017, dated 2021).

Assays:
[1] = cited from earlier work; for affinity for xenon as observed by 129Xe NMR: aqueous media, room temperature for cyclodextrins
[2] = HyperCEST detection by hyperpolarized 129Xe NMR (fritted phantom, 3T clinical scanner); settings: 10 mM in water; saturation pulse at about +128 ppm; 3T scanner
Procedure: FIGS. 7A and 7B show HyperCEST data for rotaxane-type biosensors: (FIG. 7A) cucurbiturils and pillararene-based; (FIG. 7B) cycodextrin-based. [Note: ^a Samples were dissolved in water (2 mL, 10 mM), and 1D ^129Xe spectrum were initially recorded and then a series of HyperCEST spectra were sequentially recorded using a series of off resonance pulses varying by 5 ppm. ^b Performed in H2O/DMSO. ^c Performed in CHCl3.]
For the HP-Xe studies, we used a custom-built fritted phantom inside of a custom dual tuned ^1H/^129Xe radiofrequency (RF) coil to acquire all free induction decay (FID) spectra (FIG. 6). Rotaxane-type biosensor molecules, dissolved in water and/or DMSO, were placed inside the fritted phantom, and HP ^129Xe was introduced below the fritted phantom that created microbubbles that rose vertically through the sample. A series of saturation pre-pulses at a variety of chemical shift offsets were loaded into the user interface software of the […] Achieva 3T MR scanner. Spectra with different saturation pre-pulses were acquired approximately every six seconds. […]
Nuclear Magnetic Resonance (NMR) HyperCEST Detection. […] The RF pulse length was determined with the use of the Ref B1, a parameter of Philips MR scanners. […] In this study, the B1 field strength was determined by the scanner to be 15.9 μT. […]

| Molecule | affinity for xenon as observed by 129Xe NMR [1] | also measured |
| --- | --- | --- |
| O=C1N2CN3C(=O)N4CN5C(=O)N6CN7C(=O)N8CN9C(=O)N%10CN%11C(=O)N%12CN%13C(=O)N%14CN%15C(=O)N%16CN1C1C2N2CN%17C(=O)N(CN%18C(=O)N(CN%19C(=O)N(CN%20C(=O)N(CN%21C(=O)N(CN%22C(=O)N(CN%23C(=O)N(CN1C2=O)C%16C%15%23)C%14C%13%22)C%12C%11%21)C%10C9%20)C8C7%19)C6C5%18)C4C3%17 (stereo not shown) [CB[8], cucurbit[8]uril] | do not show any affinity for xenon | – |
| OC[C@H]1O[C@@H]2O[C@H]3[C@H](O)[C@@H](O)[C@@H](O[C@H]4[C@H](O)[C@@H](O)[C@@H](O[C@H]5[C@H](O)[C@@H](O)[C@@H](O[C@H]6[C@H](O)[C@@H](O)[C@@H](O[C@H]7[C@H](O)[C@@H](O)[C@@H](O[C@H]8[C@H](O)[C@@H](O)[C@@H](O[C@H]1[C@H](O)[C@H]2O)O[C@@H]8CO)O[C@@H]7CO)O[C@@H]6CO)O[C@@H]5CO)O[C@@H]4CO)O[C@@H]3CO [β-CD, β-cyclodextrin] | either fail to bind xenon in aqueous media, or the reversible binding has too fast of an exchange rate to be detectable | – |
| O=C1N2CN3C(=O)N4CN5C(=O)N6CN7C(=O)N8CN9C(=O)N%10CN%11C(=O)N%12CN1C1C2N2CN%13C(=O)N(CN%14C(=O)N(CN%15C(=O)N(CN%16C(=O)N(CN%17C(=O)N(CN1C2=O)C%12C%11%17)C%10C9%16)C8C7%15)C6C5%14)C4C3%13 (stereo not shown) [CB6, cucurbit[6]uril] | – | HyperCEST depletion (maximum) [2]: 67% |
| OC[C@H]1O[C@@H]2O[C@H]3[C@H](O)[C@@H](O)[C@@H](O[C@H]4[C@H](O)[C@@H](O)[C@@H](O[C@H]5[C@H](O)[C@@H](O)[C@@H](O[C@H]6[C@H](O)[C@@H](O)[C@@H](O[C@H]7[C@H](O)[C@@H](O)[C@@H](O[C@H]8[C@H](O)[C@@H](O)[C@@H](O[C@H]9[C@H](O)[C@@H](O)[C@@H](O[C@H]1[C@H](O)[C@H]2O)O[C@@H]9CO)O[C@@H]8CO)O[C@@H]7CO)O[C@@H]6CO)O[C@@H]5CO)O[C@@H]4CO)O[C@@H]3CO [γ-CD, γ-cyclodextrin] | either fail to bind xenon in aqueous media, or the reversible binding has too fast of an exchange rate to be detectable | – |
| OC[C@H]1O[C@@H]2O[C@H]3[C@H](O)[C@@H](O)[C@@H](O[C@H]4[C@H](O)[C@@H](O)[C@@H](O[C@H]5[C@H](O)[C@@H](O)[C@@H](O[C@H]6[C@H](O)[C@@H](O)[C@@H](O[C@H]7[C@H](O)[C@@H](O)[C@@H](O[C@H]1[C@H](O)[C@H]2O)O[C@@H]7CO)O[C@@H]6CO)O[C@@H]5CO)O[C@@H]4CO)O[C@@H]3CO [α-CD, α-cyclodextrin] | either fail to bind xenon in aqueous media, or the reversible binding has too fast of an exchange rate to be detectable | – |
| COc1cc2c3cc1OCCOc1cc4c(cc1OC)Cc1cc5c(OC)cc1Cc1cc(c(OC)cc1C4)OCCOc1cc(c(cc1OC)C3)Cc1cc(OC)c(cc1C2)OCCO5 [Cryptophane-A] | – | xenon residence time ([1]; room temperature): 0.5 to 8 ms |
| cucurbit[7]uril [CB[7]] | do not show any affinity for xenon | – |
